# Assay results from patent US9271995B2, “Agent for ameliorating brain hypofunction” (The University of Tokyo, priority 2008, dated 2016).
# Experiments:
# Format in all cases: in vivo
# [1] = system: middle-aged mice; assay: Telemeter monitoring of heart rate, body temperature and locomotor activity; settings: administration of ManNAc
# From the text: (§1) Mice are awake during active time in the dark phase and conversely cease their activities and have a sleep in the light phase. It is known that in aged mice, the wake-sleep rhythm is deranged to the extent of lighter sleep in the light phase and decreased activities during wake time in the dark phase. It is also known that the aging-related derangement of wake and sleep is related to hypothalamic activity and accompanied by elevated body temperatures and increased heart rates. Because these symptoms are similar to those in human patients in their middle age to senescence who complain of dissatisfaction with sleep, they serve as an appropriate model for examining the influences on sleep.
# (§2) Middle-aged mice [three reared from 43 to 66 weeks of age under light-dark cycle conditions (12-hour light phase-12-hour dark phase)] were allowed to drink ManNAc solution (5 mg/ml tap water) ad libitum. During 1 week before and after the free access to the solution, […], body temperature, and locomotor activity were monitored over time using a telemeter. Also analyzed were electroencephalograms recorded during wake and sleep times in both the ManNAc non-ingestion period and the free-access period. To measure electroencephalograms and electromyograms, a mouse electroencephalogram transmitter (F20EET, Data Sciences) was implanted in each animal under anesthesia (pentobarbital, 30 mg/kg, i.v.), and electroencephalograms, electromyograms, body temperature, and locomotor activity were continuously recorded using ART (Data Sciences Company). The electroencephalograms thus obtained were analyzed using NeuroScore (Data Sciences Company), and the sleep events were classified into REM sleep and slow wave sleep. The lengths of each sleep stage were totaled and compared among the mice before and after administration and young mice.
# [2] = system: old mice (male C57BL6/Njcl); assay: Open field test; settings: ManNAc 5 mg/ml in tap water ad libitum
# Protocol: (§3) • 1) Object and place recognition task experiments were performed on male C57BL6/Njcl mice in three groups. Outline of the experiments is shown in FIG. 1. • Old control group: Old mice (reared from 47 to 66 weeks of age, n=10) were allowed to drink tap water ad libitum. • Old ManNAc recipient group: Old mice (reared from 47 to 66 weeks of age, n=10) were allowed to drink tap water with ManNAc (5 mg/ml) dissolved therein ad libitum. • Young control group: Young mice (reared from 8 to 18 weeks of age, n=10) were allowed to drink tap water ad libitum. • 2) Experimental procedures: An open field test was performed to examine the tendency toward anxiety and locomotor activity, and this was followed by place recognition task and object recognition task in accordance with conventional methods (see FIG. 2). • 3) Experimental results (FIGS. 3 and 4)
# Open field test (FIG. 3): Moving distance in an unfamiliar planar space was compared between the old mice and the young mice.
# [3] = system: old mice (male C57BL6/Njcl); assay: Object recognition task; settings: ManNAc 5 mg/ml in tap water ad libitum, paired t-test, p<0.001
# Protocol: as §3
# (§4) When ManNAc was administered to the old mice (FIG. 4C), the exploratory behavior times for the new place (paired t-test, p<0.05) and the new object (paired t-test, p<0.001) normalized in all tasks; a capability of recognition memory equivalent to that of the young mice was shown.
# [4] = system: middle-aged mice; assay: Sleep analysis by electroencephalograms and electromyograms (aging-related sleep disorders)
# From the text: as §1, §2
# [5] = system: old mice (male C57BL6/Njcl); assay: Place recognition task; settings: ManNAc 5 mg/ml in tap water ad libitum, paired t-test, p<0.05
# Protocol: as §3, §4
# [6] = middle-aged mice receiving ManNAc, began to be observed on day 2 after administration
compound,measurement,setting,value
"CC(=O)N[C@@H]1C(O)O[C@H](CO)[C@@H](O)[C@@H]1O (stereo partly drawn) [ManNAc, N-acetyl-D-mannosamine]",change in heart rate due to behavioral change (difference between the light and dark phases),[1],became evident
same,difference in locomotor activity between the light and dark phases,[1],increased
same,body temperature,[1]; non-active period,declined
same,total motor activity,[2],without influencing total motor activity
same,rise in the tendency toward anxiety (time of stay in the central portion),[2]; vs old control,"tended to decrease slightly, but the difference was statistically insignificant"
same,exploratory behavior time for the new object,[3],normalized
same,day after the start of administration on which the effect on sleep begins to be evident,"[4]; extension of REM sleep time, sleep-wake rhythm",2 days
same,REM sleep,[4]; [6],increased
same,slow wave sleep,[4]; [6],decreased
same,wake time,[4]; [6],remarkably increased
same,"Wake, daily percentage","[4]; middle-aged mice, 4 days after administration, ManNAc 5 mg/ml tap water ad libitum (before administration 1.8)",2.2%
same,"REM sleep, daily percentage","[4]; middle-aged mice, 4 days after administration, ManNAc 5 mg/ml tap water ad libitum (before administration 5.4)",10.0%
same,"Wake (major), daily percentage","[4]; middle-aged mice, 4 days after administration, ManNAc 5 mg/ml tap water ad libitum (before administration 12.7)",15.3%
same,"Slow wave sleep, daily percentage","[4]; middle-aged mice, 4 days after administration, ManNAc 5 mg/ml tap water ad libitum (before administration 80.0)",72.5%
same,exploratory behavior time for the new place,[5],normalized
